Measurements from patent US8138168B1 (Takeda Pharmaceutical Company Limited, priority 2007, dated 2012).

The compounds below were run against T1, Recombinant human renin (Homo sapiens, UniProt P00797) (assay: In vitro enzymatic activity assay of renin inhibitors (fluorogenic peptide substrate)). Details: read-out: IC50 of Exemplified Compounds Against Renin.
T1 construct: isolate the active form (residues 67-406); made in house; host or cells: FreeStyle 293-F cells (transient expression of pcDNA3.1(+)/hREN)
T1 sequence (P00797 67-406): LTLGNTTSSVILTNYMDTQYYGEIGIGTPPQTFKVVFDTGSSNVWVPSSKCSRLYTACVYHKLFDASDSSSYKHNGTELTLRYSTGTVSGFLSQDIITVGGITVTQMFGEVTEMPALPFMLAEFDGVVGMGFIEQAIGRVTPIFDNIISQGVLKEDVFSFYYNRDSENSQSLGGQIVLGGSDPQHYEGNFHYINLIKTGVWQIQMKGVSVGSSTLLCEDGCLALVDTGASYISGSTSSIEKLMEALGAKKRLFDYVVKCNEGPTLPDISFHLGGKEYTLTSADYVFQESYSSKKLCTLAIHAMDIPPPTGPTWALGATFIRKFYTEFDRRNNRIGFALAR
Format: biochemical
Method in brief: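 Recombinant human renin (3 nM final) pre-incubated 10 min at 37 °C with compounds in pH 7.4 Hepes/EDTA/DTT/0.1 mg/mL BSA/Brij35 buffer (optionally plus 2% BSA), 5% DMSO final; fluorogenic QXL520/HiLyteFluo488 peptide substrate added.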

SMILES	IC50 [nM]
CCNC(=O)Nc1ccc(-c2ccc(C[C@@H](N)CC(=O)N3CCC[C@@H](c4nc5ccccc5n4CCCOC)C3)cc2)cc1 [Compound 173, 1-(4′-((R)-2-amino-4-((R)-3-(1-(3-methoxypropyl)-1H-benzo[d]imidazol-2-yl)piperidin-1-yl)-4-oxobutyl)biphenyl-4-yl)-3-ethylurea]	< 100
COCCCn1c([C@@H]2CCCN(C(=O)C[C@H](N)Cc3ccc(-c4ccc(NC(=O)N(C)C)cc4)cc3)C2)nc2ccccc21 [Compound 174, 3-(4′-((R)-2-amino-4-((R)-3-(1-(3-methoxypropyl)-1H-benzo[d]imidazol-2-yl)piperidin-1-yl)-4-oxobutyl)biphenyl-4-yl)-1,1-dimethylurea]	< 100
CNC(=O)Nc1ccc(-c2ccc(C[C@@H](N)CC(=O)N3CCC[C@@H](c4nc5ccccc5n4CCCOC)C3)cc2)cc1 [Compound 175, 1-(4′-((R)-2-amino-4-((R)-3-(1-(3-methoxypropyl)-1H-benzo[d]imidazol-2-yl)piperidin-1-yl)-4-oxobutyl)biphenyl-4-yl)-3-methylurea]	< 100
COCCCn1c([C@@H]2CCCN(C(=O)C[C@H](N)Cc3ccc(-c4ccc(NC(=O)OC)cc4)cc3)C2)nc2ccccc21 [Compound 176, methyl 4′-((R)-2-amino-4-((R)-3-(1-(3-methoxypropyl)-1H-benzo[d]imidazol-2-yl)piperidin-1-yl)-4-oxobutyl)biphenyl-4-ylcarbamate]	< 100
COCCCn1c([C@@H]2CCCN(C(=O)C[C@H](N)Cc3ccc(-c4ccc(C(=O)NCCOC)cc4)cc3)C2)nc2ccccc21 [Compound 177, 4′-((R)-2-amino-4-((R)-3-(1-(3-methoxypropyl)-1H-benzo[d]imidazol-2-yl)piperidin-1-yl)-4-oxobutyl)-N-(2-methoxyethyl)biphenyl-4-carboxamide]	< 100
CCOCCNC(=O)c1ccc(-c2ccc(C[C@@H](N)CC(=O)N3CCC[C@@H](c4nc5ccccc5n4CCCOC)C3)cc2)cc1 [Compound 178, 4′-((R)-2-amino-4-((R)-3-(1-(3-methoxypropyl)-1H-benzo[d]imidazol-2-yl)piperidin-1-yl)-4-oxobutyl)-N-(2-ethoxyethyl)biphenyl-4-carboxamide]	< 100
COCCCn1c([C@@H]2CCCN(C(=O)C[C@H](N)Cc3ccc(-c4ccc(C(=O)NCCOC(C)C)cc4)cc3)C2)nc2ccccc21 [Compound 179, 4′-((R)-2-amino-4-((R)-3-(1-(3-methoxypropyl)-1H-benzo[d]imidazol-2-yl)piperidin-1-yl)-4-oxobutyl)-N-(2-isopropoxyethyl)biphenyl-4-carboxamide]	< 100
COCCCNC(=O)c1ccc(-c2ccc(C[C@@H](N)CC(=O)N3CCC[C@@H](c4nc5ccccc5n4CCCOC)C3)cc2)cc1 [Compound 180, 4′-((R)-2-amino-4-((R)-3-(1-(3-methoxypropyl)-1H-benzo[d]imidazol-2-yl)piperidin-1-yl)-4-oxobutyl)-N-(3-methoxypropyl)biphenyl-4-carboxamide]	< 100
COCCCn1c([C@@H]2CCCN(C(=O)C[C@H](N)Cc3ccc(-c4ccc(C(=O)NCC(O)CO)cc4)cc3)C2)nc2ccccc21 (stereo partly drawn) [Compound 181, 4′-((R)-2-amino-4-((R)-3-(1-(3-methoxypropyl)-1H-benzo[d]imidazol-2-yl)piperidin-1-yl)-4-oxobutyl)-N-(2,3-dihydroxypropyl)biphenyl-4-carboxamide]	< 100
COCCCn1c([C@@H]2CCCN(C(=O)C[C@H](N)Cc3ccc(-c4ccc(C(=O)NCCO)cc4)cc3)C2)nc2ccccc21 [Compound 182, 4′-((R)-2-amino-4-((R)-3-(1-(3-methoxypropyl)-1H-benzo[d]imidazol-2-yl)piperidin-1-yl)-4-oxobutyl)-N-(2-hydroxyethyl)biphenyl-4-carboxamide]	< 100
COCCCn1c([C@@H]2CCCN(C(=O)C[C@H](N)Cc3ccc(-c4ccc(C(=O)NC(C)(C)CO)cc4)cc3)C2)nc2ccccc21 [Compound 183, 4′-((R)-2-amino-4-((R)-3-(1-(3-methoxypropyl)-1H-benzo[d]imidazol-2-yl)piperidin-1-yl)-4-oxobutyl)-N-(1-hydroxy-2-methylpropan-2-yl)biphenyl-4-carboxamide]	< 100
COCCCn1c([C@@H]2CCCN(C(=O)C[C@H](N)Cc3ccc(-c4ccc(C(=O)NC(CO)CO)cc4)cc3)C2)nc2ccccc21 [Compound 184, 4′-((R)-2-amino-4-((R)-3-(1-(3-methoxypropyl)-1H-benzo[d]imidazol-2-yl)piperidin-1-yl)-4-oxobutyl)-N-(1,3-dihydroxypropan-2-yl)biphenyl-4-carboxamide]	< 100
COCCCn1c([C@@H]2CCCN(C(=O)C[C@H](N)Cc3ccc(-c4ccc(C(=O)N5CC[C@@H](O)C5)cc4)cc3)C2)nc2ccccc21 [Compound 185, (R)-3-amino-4-(4′-((R)-3-hydroxypyrrolidine-1-carbonyl)biphenyl-4-yl)-1-((R)-3-(1-(3-methoxypropyl)-1H-benzo[d]imidazol-2-yl)piperidin-1-yl)butan-1-one]	< 100
COCCCn1c([C@@H]2CCCN(C(=O)C[C@H](N)Cc3ccc(-c4ccc(C(=O)N[C@H](C)CO)cc4)cc3)C2)nc2ccccc21 [Compound 186, 4′-((R)-2-amino-4-((R)-3-(1-(3-methoxypropyl)-1H-benzo[d]imidazol-2-yl)piperidin-1-yl)-4-oxobutyl)-N-((R)-1-hydroxypropan-2-yl)biphenyl-4-carboxamide]	< 100
COCCCn1c([C@@H]2CCCN(C(=O)C[C@H](N)Cc3ccc(-c4ccc(C(=O)N[C@@H](C)CO)cc4)cc3)C2)nc2ccccc21 [Compound 187, 4′-((R)-2-amino-4-((R)-3-(1-(3-methoxypropyl)-1H-benzo[d]imidazol-2-yl)piperidin-1-yl)-4-oxobutyl)-N-((S)-1-hydroxypropan-2-yl)biphenyl-4-carboxamide]	< 100
COCCCn1c([C@@H]2CCCN(C(=O)C[C@H](N)Cc3ccc(-c4ccc(C(=O)NCC(C)(C)O)cc4)cc3)C2)nc2ccccc21 [Compound 188, 4′-((R)-2-amino-4-((R)-3-(1-(3-methoxypropyl)-1H-benzo[d]imidazol-2-yl)piperidin-1-yl)-4-oxobutyl)-N-(2-hydroxy-2-methylpropyl)biphenyl-4-carboxamide]	< 100
COCCCn1c([C@@H]2CCCN(C(=O)C[C@H](N)Cc3ccc(-c4ccc(C(=O)N5CCNC(=O)C5)cc4)cc3)C2)nc2ccccc21 [Compound 189, 4-(4′-((R)-2-amino-4-((R)-3-(1-(3-methoxypropyl)-1H-benzo[d]imidazol-2-yl)piperidin-1-yl)-4-oxobutyl)biphenylcarbonyl)piperazin-2-one]	< 100
COCCCn1c([C@@H]2CCCN(C(=O)C[C@H](N)Cc3ccc(-c4ccc(C(=O)NCCO)c(F)c4)cc3)C2)nc2ccccc21 [Compound 190, 4′-((R)-2-amino-4-((R)-3-(1-(3-methoxypropyl)-1H-benzo[d]imidazol-2-yl)piperidin-1-yl)-4-oxobutyl)-3-fluoro-N-(2-hydroxyethyl)biphenyl-4-carboxamide]	< 100
COCCCn1c([C@@H]2CCCN(C(=O)C[C@H](N)Cc3ccc(-c4ccc(C(=O)NCCOC)c(F)c4)cc3)C2)nc2ccccc21 [Compound 191, 4′-((R)-2-Amino-4-((R)-3-(1-(3-methoxypropyl)-1H-benzoldlimidazol-2-yl)piperidin-1-yl)-4-oxobutyl)-3-fluoro-N-(2-methoxyethyl)biphenyl-4-carboxamide]	< 100
COCCCn1c([C@@H]2CCCN(C(=O)C[C@H](N)Cc3ccc(-c4ccc(C(=O)NCCO)cc4Cl)cc3)C2)nc2ccccc21 [Compound 192, 4′-((R)-2-amino-4-((R)-3-(1-(3-methoxypropyl)-1H-benzo[d]imidazol-2-yl)piperidin-1-yl)-4-oxobutyl)-2-chloro-N-(2-hydroxyethyl)biphenyl-4-carboxamide]	< 100
COCCCn1c([C@@H]2CCCN(C(=O)C[C@H](N)Cc3ccc(-c4ccc(C(=O)NCCOC)cc4Cl)cc3)C2)nc2ccccc21 [Compound 193, 4′-((R)-2-amino-4-((R)-3-(1-(3-methoxypropyl)-1H-benzo[d]imidazol-2-yl)piperidin-1-yl)-4-oxobutyl)-2-chloro-N-(2-methoxyethyl)biphenyl-4-carboxamide]	< 100
COCCCn1c([C@@H]2CCCN(C(=O)C[C@H](N)Cc3ccc(-c4ccc(C(=O)NCCO)nc4)cc3)C2)nc2ccccc21 [Compound 194, 5-(4-((R)-2-Amino-4-((R)-3-(1-(3-methoxypropyl)-1H-benzo[d]imidazol-2-yl)piperidin-1-yl)-4-oxobutyl)phenyl)-N-(2-hydroxyethyl)picolinamide]	< 100
COCCCn1c([C@@H]2CCCN(C(=O)C[C@H](N)Cc3ccc(-c4ccc(C(=O)NCCOC)nc4)cc3)C2)nc2ccccc21 [Compound 195, 5-(4-((R)-2-amino-4-((R)-3-(1-(3-methoxypropyl)-1H-benzo[d]imidazol-2-yl)piperidin-yl)-4-oxobutyl)phenyl)-N-(2-methoxyethyl)picolinamide]	< 100
COCCCn1c([C@@H]2CCCN(C(=O)C[C@H](N)Cc3ccc(-c4ccc(NC(=O)COC)cc4)cc3)C2)nc2ccccc21 [Compound 197, N-(4′-((R)-2-amino-4-((R)-3-(1-(3-methoxypropyl)-1H-benzo[d]imidazol-2-yl)piperidin-1-yl)-4-oxobutyl)biphenyl-4-yl)-2-methoxyacetamide]	< 100
